Laboratory results taken from patent publication US6803480B2, “Diphenylmethane derivatives” (Bayer Aktiengesellschaft, priority 2000, dated 2004).

Assay: T3 promoter assay cell test (luciferase reporter)
Type: cell-based
Settings: Homo sapiens; HepG2 cells, luciferase induction, costimulator retinoic acid, incubation 48 or 72 hours, four replicates
Experimental: Their activity can be tested, for example, in vitro by the following T3 promoter assay cell test:
The test is carried out with a stably transfected human HepG2 hepatocarcinoma cell which expresses a luciferase gene under the control of a thyroid hormone-regulated promoter. The vector used for the transfection has upstream of the luciferase gene a minimal thymidine kinase promoter with a thyroid hormone-responsive element (TRE) which consists of two inverted palindromes each of 12 bp and of an 8 bp spacer.
For the test, the cell cultures are seeded in Eagle's minimal essential medium in 96-well plates with the following additions: glutamine, tricine, sodium pyruvate, nonessential amino acids, insulin, selenium and transferrin. The cultures are grown at 37° C. with a 10% CO2 atmosphere for 48 hours. Then serial dilutions of test substance or reference compound (T3, T4) and costimulator retinoic acid are added to the test cultures and the latter are incubated as previously for a further 48 or 72 hours. Each substance concentration is tested in four replicates. To determine the luciferase induced by T3 or other substances, the cells are subsequently lysed by adding a Triton- and luciferin-containing buffer and measured immediately in a luminometer. The EC50 values for each compound are calculated (see Table 1).

EC50 | SMILES
4.3 nM | COc1ccc(Cc2c(C)cc(NC(=O)C(=O)O)cc2C)cc1Cc1ccc(F)cc1 [Example 5, ({4-[3-(4-Fluorobenzyl)-4-methoxybenzyl]-3,5-dimethylphenyl}amino)(oxo)acetic acid]
0.14 nM | Cc1cc(NC(=O)C(=O)O)cc(C)c1Cc1ccc(O)c(C(C)C)c1 [Example 2, 2-[4-(4-Hydroxy-3-isopropylbenzyl)-3,5-dimethylanilino]-2-oxoacetic acid]
0.23 nM | Cc1cc(NC(=O)C(=O)O)cc(C)c1Cc1ccc(O)c(Cc2ccc(F)cc2)c1 [Example 4, ({4-[3-(4-Fluorobenzyl)-4-hydroxybenzyl]-3,5-dimethylphenyl}amino)(oxo)acetic acid]
